# Measured values as given in the NIST ThermoML archive (doi:10.1016/j.jct.2015.07.028).
# Numbers after ± are expanded uncertainties.
# Assays:
# [1] = Molar enthalpy of transition or fusion; conditions: Adiabatic calorimetry
# [2] = molar enthalpy of vaporization or sublimation; conditions: 305.12 K; Liquid; Static calorimetry
# [3] = for molar entropy: 101.33 kPa, Small (less than 1 g) adiabatic calorimetry; for vapor or sublimation pressure: Closed cell (Static) method; for Triple point temperature: Adiabatic calorimetry
compound,measurement,setting,value
C=CC(C)(C)O [2-methyl-3-buten-2-ol],Molar enthalpy of transition or fusion,[1]; Crystal 1,1.243 ± 0.0112 kcal/mol
same,Molar enthalpy of transition or fusion,[1]; Crystal 2,0.0406 ± 0.011 kcal/mol
same,molar enthalpy,[2],11.2 ± 0.382 kcal/mol
same,molar entropy,"[3]; 5 K, Crystal 2",0.1073 ± 0.025 J/K/mol
same,molar entropy,"[3]; 10 K, Crystal 2",0.901 ± 0.045 J/K/mol
same,molar entropy,"[3]; 15 K, Crystal 2",2.701 ± 0.082 J/K/mol
same,molar entropy,"[3]; 20 K, Crystal 2",5.385 ± 0.13 J/K/mol
same,molar entropy,"[3]; 25 K, Crystal 2",8.631 ± 0.16 J/K/mol
same,molar entropy,"[3]; 30 K, Crystal 2",12.21 ± 0.22 J/K/mol
same,molar entropy,"[3]; 35 K, Crystal 2",15.96 ± 0.25 J/K/mol
same,molar entropy,"[3]; 40 K, Crystal 2",19.77 ± 0.28 J/K/mol
same,molar entropy,"[3]; 45 K, Crystal 2",23.58 ± 0.31 J/K/mol
same,molar entropy,"[3]; 50 K, Crystal 2",27.38 ± 0.34 J/K/mol
same,molar entropy,"[3]; 60 K, Crystal 2",34.85 ± 0.4 J/K/mol
same,molar entropy,"[3]; 70 K, Crystal 2",42.16 ± 0.46 J/K/mol
same,molar entropy,"[3]; 80 K, Crystal 2",49.35 ± 0.51 J/K/mol
same,molar entropy,"[3]; 88.1 K, Crystal 1",57.03 ± 0.58 J/K/mol
same,molar entropy,"[3]; 88.1 K, Crystal 2",55.1 ± 0.56 J/K/mol
same,molar entropy,"[3]; 90 K, Crystal 1",58.35 ± 0.61 J/K/mol
same,molar entropy,"[3]; 100 K, Crystal 1",65.19 ± 0.66 J/K/mol
same,molar entropy,"[3]; 110 K, Crystal 1",71.91 ± 0.72 J/K/mol
same,molar entropy,"[3]; 120 K, Crystal 1",78.52 ± 0.77 J/K/mol
same,molar entropy,"[3]; 130 K, Crystal 1",85.1 ± 0.81 J/K/mol
same,molar entropy,"[3]; 140 K, Crystal 1",91.7 ± 0.86 J/K/mol
same,molar entropy,"[3]; 150 K, Crystal 1",98.37 ± 0.9 J/K/mol
same,molar entropy,"[3]; 160 K, Crystal 1",105.2 ± 1 J/K/mol
same,molar entropy,"[3]; 170 K, Crystal 1",112.2 ± 1 J/K/mol
same,molar entropy,"[3]; 180 K, Crystal 1",119.4 ± 1 J/K/mol
same,molar entropy,"[3]; 190 K, Crystal 1",126.8 ± 1.1 J/K/mol
same,molar entropy,"[3]; 200 K, Crystal 1",134.3 ± 1.2 J/K/mol
same,molar entropy,"[3]; 210 K, Crystal 1",141.9 ± 1.2 J/K/mol
same,molar entropy,"[3]; 220 K, Crystal 1",149.7 ± 1.2 J/K/mol
same,molar entropy,"[3]; 230 K, Crystal 1",157.5 ± 1.4 J/K/mol
same,molar entropy,"[3]; 240 K, Crystal 1",165.4 ± 1.4 J/K/mol
same,molar entropy,"[3]; 245.03 K, Crystal 1",169.4 ± 1.4 J/K/mol
same,molar entropy,"[3]; 245.03 K, Liquid",190.6 ± 1.6 J/K/mol
same,molar entropy,"[3]; 250 K, Liquid",194.6 ± 1.6 J/K/mol
same,molar entropy,"[3]; 260 K, Liquid",202.4 ± 1.7 J/K/mol
same,molar entropy,"[3]; 270 K, Liquid",210.3 ± 1.7 J/K/mol
same,molar entropy,"[3]; 273.15 K, Liquid",212.8 ± 1.8 J/K/mol
same,vapor or sublimation pressure,"[3]; 279.12 K, Liquid",0.7477 ± 0.012 kPa
same,vapor or sublimation pressure,"[3]; 279.82 K, Liquid",0.7934 ± 0.012 kPa
same,molar entropy,"[3]; 280 K, Liquid",218.2 ± 1.8 J/K/mol
same,vapor or sublimation pressure,"[3]; 280.58 K, Liquid",0.8399 ± 0.012 kPa
same,vapor or sublimation pressure,"[3]; 280.94 K, Liquid",0.8608 ± 0.013 kPa
same,vapor or sublimation pressure,"[3]; 281.64 K, Liquid",0.9104 ± 0.014 kPa
same,vapor or sublimation pressure,"[3]; 283.31 K, Liquid",1.026 ± 0.015 kPa
same,vapor or sublimation pressure,"[3]; 283.94 K, Liquid",1.075 ± 0.016 kPa
same,vapor or sublimation pressure,"[3]; 285.82 K, Liquid",1.23 ± 0.02 kPa
same,vapor or sublimation pressure,"[3]; 286.31 K, Liquid",1.271 ± 0.021 kPa
same,vapor or sublimation pressure,"[3]; 288.03 K, Liquid",1.447 ± 0.021 kPa
same,vapor or sublimation pressure,"[3]; 288.63 K, Liquid",1.504 ± 0.021 kPa
same,molar entropy,"[3]; 290 K, Liquid",226.1 ± 1.8 J/K/mol
same,vapor or sublimation pressure,"[3]; 291.06 K, Liquid",1.787 ± 0.024 kPa
same,vapor or sublimation pressure,"[3]; 291.09 K, Liquid",1.78 ± 0.024 kPa
same,vapor or sublimation pressure,"[3]; 293.17 K, Liquid",2.061 ± 0.026 kPa
same,vapor or sublimation pressure,"[3]; 293.35 K, Liquid",2.084 ± 0.026 kPa
same,vapor or sublimation pressure,"[3]; 295.88 K, Liquid",2.467 ± 0.032 kPa
same,vapor or sublimation pressure,"[3]; 295.92 K, Liquid",2.466 ± 0.032 kPa
same,vapor or sublimation pressure,"[3]; 298.02 K, Liquid",2.863 ± 0.036 kPa
same,molar entropy,"[3]; 298.15 K, Liquid",232.6 ± 1.9 J/K/mol
same,vapor or sublimation pressure,"[3]; 298.84 K, Liquid",2.995 ± 0.038 kPa
same,molar entropy,"[3]; 300 K, Liquid",234.1 ± 1.9 J/K/mol
same,vapor or sublimation pressure,"[3]; 301.36 K, Liquid",3.534 ± 0.044 kPa
same,vapor or sublimation pressure,"[3]; 301.37 K, Liquid",3.532 ± 0.044 kPa
same,vapor or sublimation pressure,"[3]; 303.03 K, Liquid",3.938 ± 0.045 kPa
same,vapor or sublimation pressure,"[3]; 303.4 K, Liquid",4.006 ± 0.046 kPa
same,vapor or sublimation pressure,"[3]; 306.13 K, Liquid",4.784 ± 0.057 kPa
same,vapor or sublimation pressure,"[3]; 306.16 K, Liquid",4.776 ± 0.057 kPa
same,vapor or sublimation pressure,"[3]; 307.86 K, Liquid",5.284 ± 0.067 kPa
same,vapor or sublimation pressure,"[3]; 308.18 K, Liquid",5.405 ± 0.068 kPa
same,molar entropy,"[3]; 310 K, Liquid",242 ± 1.9 J/K/mol
same,vapor or sublimation pressure,"[3]; 311.01 K, Liquid",6.393 ± 0.075 kPa
same,vapor or sublimation pressure,"[3]; 311.02 K, Liquid",6.405 ± 0.075 kPa
same,vapor or sublimation pressure,"[3]; 312.7 K, Liquid",7.049 ± 0.082 kPa
same,vapor or sublimation pressure,"[3]; 313.18 K, Liquid",7.252 ± 0.086 kPa
same,vapor or sublimation pressure,"[3]; 313.25 K, Liquid",7.27 ± 0.085 kPa
same,vapor or sublimation pressure,"[3]; 315.8 K, Liquid",8.467 ± 0.087 kPa
same,vapor or sublimation pressure,"[3]; 315.81 K, Liquid",8.457 ± 0.088 kPa
same,vapor or sublimation pressure,"[3]; 315.98 K, Liquid",8.484 ± 0.088 kPa
same,vapor or sublimation pressure,"[3]; 318.16 K, Liquid",9.605 ± 0.11 kPa
same,molar entropy,"[3]; 320 K, Liquid",250 ± 2 J/K/mol
same,vapor or sublimation pressure,"[3]; 320.59 K, Liquid",11.11 ± 0.11 kPa
same,vapor or sublimation pressure,"[3]; 320.62 K, Liquid",11.02 ± 0.12 kPa
same,vapor or sublimation pressure,"[3]; 320.82 K, Liquid",11.12 ± 0.12 kPa
same,vapor or sublimation pressure,"[3]; 322.89 K, Liquid",12.51 ± 0.15 kPa
same,vapor or sublimation pressure,"[3]; 322.94 K, Liquid",12.48 ± 0.14 kPa
same,vapor or sublimation pressure,"[3]; 325.36 K, Liquid",14.31 ± 0.15 kPa
same,vapor or sublimation pressure,"[3]; 325.39 K, Liquid",14.24 ± 0.16 kPa
same,vapor or sublimation pressure,"[3]; 325.66 K, Liquid",14.41 ± 0.16 kPa
same,vapor or sublimation pressure,"[3]; 328.07 K, Liquid",16.34 ± 0.18 kPa
same,molar entropy,"[3]; 330 K, Liquid",257.9 ± 2.1 J/K/mol
same,molar entropy,"[3]; 340 K, Liquid",265.7 ± 2.1 J/K/mol
same,molar entropy,"[3]; 350 K, Liquid",273.5 ± 2.1 J/K/mol
same,molar entropy,"[3]; 360 K, Liquid",281.1 ± 2.3 J/K/mol
same,molar entropy,"[3]; 370 K, Liquid",288.5 ± 2.3 J/K/mol
same,Triple point temperature,[3]; Crystal 1,245.03 ± 0.05 K
same,Triple point temperature,[3]; Crystal 2,88.1 ± 0.3 K
